Measured values from ChEMBL document CHEMBL1126540, “Synthesis and evaluation of 3-carboxymethyl steroids as inhibitors of human prostatic steroid 5-reductase” (Bioorg Med Chem Lett, 1993).

Experiment: Inhibition of Human prostatic Steroid 5-alpha-reductase
Conditions: read-out: Ki app

| Structure (SMILES) | Ki |
| --- | --- |
| CC(C)N(C(=O)[C@H]1CC[C@H]2[C@@H]3CCc4cc(C(F)(F)C(=O)O)ccc4[C@H]3CC[C@]12C)C(C)C | 40 nM |
| CC(C)N(C(=O)[C@H]1CC[C@H]2[C@@H]3CCc4cc(CCC(=O)O)ccc4[C@H]3CC[C@]12C)C(C)C | 290 nM |
| CC(C)N(C(=O)[C@H]1CC[C@H]2[C@@H]3CCc4cc(CS(=O)(=O)O)ccc4[C@H]3CC[C@]12C)C(C)C | > 5000 nM |
| CC(C)N(C(=O)[C@H]1CC[C@H]2[C@@H]3CCc4cc(CP(=O)(O)O)ccc4[C@H]3CC[C@]12C)C(C)C | 740 nM |
| CC(C)N(C(=O)[C@H]1CC[C@H]2[C@@H]3CCc4cc(C(=O)C(=O)O)ccc4[C@H]3CC[C@]12C)C(C)C | 150 nM |
| CC(C)N(C(=O)[C@H]1CC[C@H]2[C@@H]3CCc4cc(CC(=O)O)ccc4[C@H]3CC[C@]12C)C(C)C | 20 nM |
| CC(C)N(C(=O)[C@H]1CCC2C3CC=C4C=C(C(=O)O)CC[C@]4(C)C3CC[C@@]21C)C(C)C (some centres undefined) | 7 nM |
| CC(C)N(C(=O)[C@H]1CCC2C3CC[C@H]4CC(CC(=O)O)=CC[C@]4(C)C3CC[C@@]21C)C(C)C (some centres undefined) | 40 nM |
| CC(C)N(C(=O)[C@H]1CCC2C3CC[C@H]4C=C(CC(=O)O)CC[C@]4(C)C3CC[C@@]21C)C(C)C (some centres undefined) | 85 nM |
| CC(C)N(C(=O)[C@H]1CC[C@H]2[C@@H]3CC[C@H]4C/C(=C/C(=O)O)CC[C@]4(C)[C@H]3CC[C@]12C)C(C)C | > 5000 nM |
| CC(C)N(C(=O)[C@H]1CCC2C3CCC4=C/C(=C\C(=O)O)CC[C@]4(C)C3CC[C@@]21C)C(C)C (some centres undefined) | > 5000 nM |
| CC(C)N(C(=O)[C@H]1CCC2C3CC[C@H]4C=C(C(=O)O)CC[C@]4(C)C3CC[C@@]21C)C(C)C (some centres undefined) | 30 nM |
| CC(C)N(C(=O)[C@H]1CCC2C3CC=C4C=C(CC(=O)O)CC[C@]4(C)C3CC[C@@]21C)C(C)C (some centres undefined) | 450 nM |
| CC(C)N(C(=O)[C@H]1CCC2C3CCC4=C/C(=C/C(=O)O)CC[C@]4(C)C3CC[C@@]21C)C(C)C (some centres undefined) | > 5000 nM |
